Consider 87 molecules from PubChem BioAssay AID652053 (Broad Institute, 2013).

The assay deals with Huh7 psiCHECK-miR122 Renilla luciferase reporter, 48 h. The assay can be described thus: miR-122 inhibitors in Huh7 reporter cells, dose response, cell-based, Huh7 psiCHECK-miR122, Renilla luciferase, cherry-pick (AID 652053).
For the molecule `O=C1COc2ccc(S(=O)(=O)Nc3ccc(F)cc3)cc2N1`, the AC40 is 5.23 µM.
As to `CC(C)NC(=O)Nc1ccc2c(c1)CC(=O)N([C@H](C)CO)C[C@H](C)[C@H](CN(C)Cc1ccc(C(=O)Nc3ccccc3N)cc1)O2`, the AC40 is 14.2 µM.
Regarding `Cc1cc(S(=O)(=O)N(Cc2ccccc2F)C2CC2)ccc1-n1cnnn1`, the AC40 is 1.94 µM.
With `CC(=O)N1CCSc2ccc(S(=O)(=O)Nc3ccc(C)cc3)cc21` the figure was 4.2 µM; with `COc1ccc(C(=O)Nc2cccc(S(=O)(=O)NCc3ccco3)c2)cc1`, 0.822 µM.
For the molecule `CCn1c(=O)c2cc(S(=O)(=O)NC3CCCCC3)ccc2n(CC)c1=O`, the AC40 was 3.31 µM.
In the case of `S=C(NCc1cccs1)Nc1cccc(Cl)c1`, the AC40 is 3.93 µM.
With `CCCNC(=O)C[C@@H]1CC[C@H]2[C@H](COc3ccc(NC(=O)Nc4ccccc4F)cc3C(=O)N2C)O1` the figure was 2.53 µM; with `O=C(NNS(=O)(=O)c1ccc(Cl)cc1)c1cccc(S(=O)(=O)N2CCOCC2)c1`, 5.2 µM; with `O=C(Nc1ccccc1O)c1ccc(NS(=O)(=O)c2cccc3cccnc23)cc1`, 14.8 µM.
For `O=S(=O)(NCc1ccco1)c1ccc2ccccc2c1`, the AC40 is 2.62 µM.
Under `Cc1ccccc1-c1cnc(C(O)c2ccc(F)c(F)c2)[nH]1` (configuration not stated) stands 6.78 µM; under `CCC(=O)N1N=C(c2ccc(NS(=O)(=O)c3ccc(C)cc3)cc2)CC1c1ccco1` (configuration not stated), 4.52 µM.
For the molecule `Cc1cc(C)c(C)c(S(=O)(=O)Nc2ccc(O)cc2)c1C`, the AC40 is 6.69 µM.
On to `O=C(COc1ccc(S(=O)(=O)NC2CCCCC2)cc1)Nc1ccc2c(c1)OCCO2`, for which the AC40 is 7.82 µM.
For the molecule `OCC1OC(n2cnc3c(NCc4ccccc4O)ncnc32)C(O)C1O` (configuration not stated), the AC40 was 3.86 µM.
As to `COc1ccccc1-c1nnc2sc(-c3ccc(N(C)C)cc3)nn12`, the AC40 was 7.44 µM.
Take `COc1ccccc1NS(=O)(=O)c1cccc(NC(=O)c2[nH]c(C)c(C(C)=O)c2C)c1`: the AC40 was 7.17 µM.
For the molecule `Fc1cccc(NC(=S)NC2CCCCCCC2)c1`, the AC40 was 4.22 µM.
Under `COc1ccc(C(C)(C)C)cc1S(=O)(=O)NCC1CCCO1` (configuration not stated) stands 0.329 µM; under `Cc1ccc(S(=O)(=O)Nc2ccc3c(c2)CC(=O)N([C@H](C)CO)C[C@@H](C)[C@H](CN(C)Cc2ccc(C(=O)Nc4ccccc4N)cc2)O3)cc1`, 17.2 µM.
In the case of `COc1cc(S(=O)(=O)NC2CCCC2)c(OC)cc1Cl`, the AC40 is 2.6 µM.
Turning to `Cn1c(=O)n(C)c2cc(NS(=O)(=O)c3ccc(C(C)(C)C)cc3)ccc21`, the AC40 was 8.31 µM.
In the case of `CCCCNS(=O)(=O)c1ccc2nc(-c3cccnc3)cc(C(=O)NC3CCCC3)c2c1`, the AC40 was 5.37 µM.
On to `CCCCn1c(NC(=O)c2ccc(Br)o2)c(S(=O)(=O)c2ccccc2)c2nc3ccccc3nc21`, for which the AC40 was 25.7 µM.
Regarding `CCc1ccc(-c2cc(C)no2)cc1S(=O)(=O)Nc1ccc(C)cn1`, the AC40 was 2.33 µM.
Consider `Cc1ccc(C(=O)NCc2ccco2)cc1S(=O)(=O)Nc1cccc(C)c1C`, for which the AC40 was 6.29 µM.
As to `COc1ccc(S(=O)(=O)N(C)C[C@H]2Oc3ccc(NC(=O)Nc4ccc(C(F)(F)F)cc4)cc3C(=O)N([C@@H](C)CO)C[C@H]2C)cc1`, the AC40 is 8.41 µM.
Turning to `Cc1cc(Cl)c(Cl)cc1S(=O)(=O)NCCCn1ccnc1`, the AC40 is 2.79 µM.
Under `C[C@H]1CN([C@@H](C)CO)C(=O)c2cccc(NC(=O)Nc3ccc(C(F)(F)F)cc3)c2O[C@@H]1CN(C)CC1CCCCC1` stands 3.47 µM; under `CN(C)c1ccc(C(=O)c2ccc(N(C)C)c3ccccc23)cc1`, 4.07 µM; under `COc1ccc(N(C(=O)c2ccco2)S(=O)(=O)c2cc(Cl)c(Cl)cc2Cl)cc1`, 12.4 µM.
As to `Cc1ccc(C(=O)Nc2ccccc2-c2ccccc2)cc1S(=O)(=O)Nc1ccccc1`, the AC40 is 3.64 µM.
In the case of `O=C1c2ccccc2C2=Nc3ccccc3SC(c3cccc(F)c3)C12` (configuration not stated), the AC40 was 7.63 µM.
On to `COc1ccc(CNS(=O)(=O)c2cc(-c3cc(C)no3)ccc2C(C)C)cc1`, for which the AC40 is 3.69 µM.
In the case of `CCOC(=O)CNS(=O)(=O)c1cc(-c2nnc(Nc3ccc4c(c3)OCO4)c3ccccc23)ccc1C`, the AC40 was 2.63 µM.
`CCCNC(=O)NC[C@@H]1[C@@H](c2ccc(C3=CCCC3)cc2)[C@H](CO)N1C(=O)CC`: the AC40 was 5.75 µM.
Take `COc1cc(NS(=O)(=O)c2ccc(NC(=S)NC(=O)c3ccco3)cc2)nc(OC)n1`: the AC40 is 7.11 µM.
For `O=C(c1ccccc1F)N1C[C@H]2[C@@H](c3ccccc31)[C@@H](CO)N2C(=O)c1ccc(F)cc1`, the AC40 was 2.4 µM.
In the case of `Cc1ccc(S(=O)(=O)Nc2ccc3c4c(cccc24)CC3)c(C)c1`, the AC40 is 6.8 µM.
Consider `O=C(Nc1ccc(F)cc1)N1C[C@H]2[C@@H](c3ccccc31)[C@@H](CO)N2C(=O)c1ccc(F)cc1`, for which the AC40 was 10.9 µM.
Consider `CCN(CC)c1ccc(NC(=O)c2cnccn2)cc1S(=O)(=O)Nc1ccc(OC)cc1`, for which the AC40 is 0.976 µM.
For `CCc1ccc(S(=O)(=O)Nc2ccc(Cl)cn2)cc1`, the AC40 is 8.84 µM.
Take `Nc1c(S(=O)(=O)c2cc(Cl)ccc2Cl)c2nc3ccccc3nc2n1CCN1CCOCC1`: the AC40 was 6.22 µM.
Take `O=S(=O)(NCc1cccnc1)c1ccc(Cl)c2ccccc12`: the AC40 is 4.69 µM.
With `Cc1cccc(NS(=O)(=O)c2cc3c(cc2C)NC(=O)CO3)c1`, the AC40 is 2.36 µM.
Under `Cc1ccc(CN2CCSc3ccc(C(=O)NCc4cccnc4)cc32)cc1` stands 10.6 µM.
As to `C[C@H](CO)N1C[C@H](C)[C@@H](CN(C)CC2CC2)Oc2c(NC(=O)C3CC3)cccc2C1=O`, the AC40 was 22.2 µM.
With `Cc1ccc(C)c(S(=O)(=O)Nc2ccc3cn[nH]c3c2)c1`, the AC40 is 3.58 µM.
Under `O=C1NC(=O)C(CCc2ccncc2)(Cc2cccc(Cl)c2Cl)C(=O)N1c1ccc(Br)cc1` (configuration not stated) stands 2.98 µM; under `O=S(=O)(NC1CCCCC1)c1ccc(-c2csnn2)s1`, 3.8 µM.
Under `O=S(=O)(/N=C(/Nc1ccc(Cl)c(S(=O)(=O)N2CCOCC2)c1)c1ccc(F)cc1)c1ccccc1` stands 0.864 µM; under `Cc1ccc(NC(=O)C(=O)c2c(-c3ccccc3)cc3ccccn23)cc1S(=O)(=O)N1CCOCC1`, 27.9 µM; under `Cc1ccc(C)c(S(=O)(=O)Nc2cc3c4c(c2)CCC(=O)N4CCC3)c1`, 0.678 µM.
Under `CCOc1ccc(S(=O)(=O)NCCN2CCOCC2)c2ccccc12` stands 1.14 µM; under `CCC(C(=O)Nc1ccc(N2CCOCC2)c(S(=O)(=O)Nc2ccccc2OC)c1)c1ccccc1` (configuration not stated), 1.11 µM.
Take `Cc1ccc(-c2nnc(Nc3ccc4c(c3)OCO4)c3ccccc23)cc1S(N)(=O)=O`: the AC40 is 5.9 µM.
Turning to `C[C@H](CO)N1C[C@H](C)[C@H](CN(C)Cc2ccc(C(=O)Nc3ccccc3N)cc2)Oc2c(cccc2N(C)C)C1=O`, the AC40 was 8.75 µM.
Turning to `CC(C)CC#Cc1ccc2c(c1)O[C@H](CN(C)C(=O)Nc1ccccc1F)[C@@H](C)CN([C@@H](C)CO)S2(=O)=O`, the AC40 was 2.15 µM.
With `CC(C)NC(=O)Nc1cccc2c1O[C@@H](CN(C)Cc1ccc(C(F)(F)F)cc1)[C@H](C)CN([C@H](C)CO)C2=O` the figure was 1.52 µM; with `COc1ccc(NS(=O)(=O)c2cc(NS(=O)(=O)c3cccs3)ccc2C)cc1`, 4.04 µM; with `C[C@H](CO)N1C[C@H](C)[C@H](CN(C)Cc2ccc(C(=O)Nc3ccccc3N)cc2)Oc2ccc(NS(=O)(=O)c3ccccc3)cc2CC1=O`, 3.45 µM.
Regarding `O=C(CN1CCOCC1)Nc1ccc(Br)cc1C(=O)c1ccccc1`, the AC40 is 1.64 µM.
Turning to `COc1ccc(NS(=O)(=O)c2cc(NC(=O)CCc3ccc(OC)c(OC)c3)ccc2N2CCOCC2)cc1`, the AC40 was 1.77 µM.
Under `CN1CC(c2ccccc2Cl)C2(COc3ccccc3C2=O)C12C(=O)Nc1ccccc12` (configuration not stated) stands 2.2 µM; under `COc1ccc(NS(=O)(=O)c2cc3c(cc2C)N(C)CCO3)c(OC)c1`, 1.81 µM.
With `Cc1cc(F)ccc1C(O)c1ncc(-c2ccccc2F)[nH]1` (configuration not stated), the AC40 is 5.29 µM.
With `COc1ccc(NC(=O)Nc2ccc3c(c2)C(=O)N([C@H](C)CO)C[C@@H](C)[C@@H](CN(C)S(=O)(=O)c2ccc(OC)cc2)O3)cc1` the figure was 1.21 µM; with `Cc1ccc(C2c3c(-c4ccccc4O)n[nH]c3C(=O)N2Cc2ccncc2)cc1` (configuration not stated), 8.08 µM; with `CCCC#Cc1ccc2c(c1)O[C@H](CN(C)C(=O)c1ccccn1)[C@@H](C)CN([C@H](C)CO)S2(=O)=O`, 11.3 µM.
On to `O=C(NC(=S)Nc1ccc(S(=O)(=O)NC2CCCCC2)cc1)c1cccs1`, for which the AC40 is 0.715 µM.
Regarding `CCNS(=O)(=O)c1ccc2c3c(cccc13)C(=O)N2`, the AC40 was 11.6 µM.
With `Cc1ccc(C)c(S(=O)(=O)Nc2ccc3sc(C)nc3c2)c1` the figure was 1.5 µM; with `C[C@H](CO)N1C[C@H](C)[C@@H](CN(C)Cc2ccc(C(F)(F)F)cc2)Oc2c(NC(=O)c3nc4ccccc4s3)cccc2C1=O`, 2.32 µM; with `O=S(=O)(N/N=C\c1cccn1-c1ccccc1)c1ccc2ccccc2c1`, 0.263 µM.
In the case of `CCOc1ccccc1C(=O)N1CCN(c2cccc(Cl)c2)CC1`, the AC40 was 11.6 µM.
`O=C(c1cccc(F)c1)N1C[C@H]2[C@@H](c3ccccc31)[C@@H](CO)N2C(=O)c1ccc(F)cc1`: the AC40 was 1.08 µM.
Turning to `Cn1cc(CC(=O)Nc2cccc(C#N)c2)c2ccccc21`, the AC40 is 3.57 µM.
As for `CCOc1ccc(Cl)cc1S(=O)(=O)NC1CCCC1`, the AC40 was 2.27 µM.
Turning to `COc1ccc(C)cc1S(=O)(=O)NC1CCCC1`, the AC40 is 6.24 µM.
With `COc1ccc(OC)c(S(=O)(=O)Nc2cc3c4c(c2)CCC(=O)N4CCC3)c1` the figure was 0.84 µM; with `O=C(Nc1ccc(S(=O)(=O)NCc2ccccc2)cc1)Nc1ccc2c(c1)OCO2`, 2.08 µM.
In the case of `C[C@@H]1CN([C@@H](C)CO)C(=O)c2cccc(NC(=O)c3ccncc3)c2O[C@@H]1CN(C)C`, the AC40 was 12 µM.
Regarding `Cc1ccc(NS(=O)(=O)c2cc(C(=O)NCc3ccncc3)ccc2C)cc1`, the AC40 is 2.82 µM.
With `CC1CCCCC1NC(=S)Nc1ccc(SC(F)F)cc1` (configuration not stated), the AC40 was 4.15 µM.
Take `COc1ccccc1NS(=O)(=O)c1cc(N/C(=N/S(=O)(=O)c2ccccc2)c2ccc(F)cc2)ccc1Cl`: the AC40 was 3.27 µM.
Consider `CSc1ccc(S(=O)(=O)NC2CC3CCC2C3)cc1` (configuration not stated), for which the AC40 was 5.6 µM.
